Molecular target: T1, Kir4.1 (Homo sapiens, UniProt P78508)
T1 sequence (P78508 1-379): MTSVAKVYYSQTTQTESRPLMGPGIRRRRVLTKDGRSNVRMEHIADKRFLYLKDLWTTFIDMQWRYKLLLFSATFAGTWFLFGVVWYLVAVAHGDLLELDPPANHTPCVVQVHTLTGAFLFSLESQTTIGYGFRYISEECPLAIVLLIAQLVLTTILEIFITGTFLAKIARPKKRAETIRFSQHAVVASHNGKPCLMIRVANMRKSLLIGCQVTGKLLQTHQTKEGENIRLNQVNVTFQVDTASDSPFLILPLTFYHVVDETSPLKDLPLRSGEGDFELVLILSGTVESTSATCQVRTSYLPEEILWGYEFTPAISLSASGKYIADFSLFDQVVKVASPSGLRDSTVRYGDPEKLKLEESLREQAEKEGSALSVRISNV
Conditions: Ohno et al., 2007; Wang et al., 2006; Kharade et al., 2018; cited from earlier work

| SMILES | Kir4.1 inhibition (literature statement) |
| --- | --- |
| CNCCC=C1c2ccccc2CCc2ccccc21 [nortriptyline] | inhibit Kir4.1, yet with lower affinity |
| CN(C)CCCN1c2ccccc2CCc2ccccc21 [imipramine] | inhibit Kir4.1, yet with lower affinity |
| CC(C)c1ccc(OCC(=O)NC2CC(C)(C)NC(C)(C)C2)c(Br)c1 [VU0134992] | highly selective and specific Kir4.1 inhibitor |
| CNCCCN1c2ccccc2CCc2ccccc21 [desipramine] | inhibit Kir4.1, yet with lower affinity |
| COCCCC/C(=N\OCCN)c1ccc(C(F)(F)F)cc1 [fluvoxamine] | inhibit Kir4.1, yet with lower affinity |
| CNCCC(Oc1ccc(C(F)(F)F)cc1)c1ccccc1 (stereo not shown) [fluoxetine] | inhibit Kir4.1, yet with lower affinity |
| CN[C@H]1CC[C@@H](c2ccc(Cl)c(Cl)c2)c2ccccc21 [sertraline] | inhibit Kir4.1, yet with lower affinity |
| CN(C)CCC=C1c2ccccc2CCc2ccccc21 [amitriptyline] | inhibit Kir4.1, yet with lower affinity |

Tested on: LHb neurons
Format: cell-based
Conditions: not given

| SMILES | firing frequency of bursting neurons |
| --- | --- |
| [Ba+2].[Cl-].[Cl-] [BaCl2] | dramatic increase |

Same assay, conditions: BaCl2 100 μM, about 10 min bath perfusion

| SMILES | RMPs of tonic and burst-firing LHb neurons |
| --- | --- |
| [Ba+2].[Cl-].[Cl-] [BaCl2] | depolarized |
